Measured values reported in patent US12077557B2, “Puromycin-based probes and methods of use thereof” (The Regents of the University of California, priority 2018, dated 2024).

How the values were obtained:
[1] = test system: panel of related cancer and non-tumorigenic breast cell lines; assay: H2O2 profiling across a panel of cancer and non-tumorigenic breast cell lines; assay type: cell-based, human; settings: 1 μM, 4 h; MDA-MB-231, HS 578T, MDA-MB-468, MCF-7, MCF-10A, HS 578Bst
Description: (§1) Human cervical epithelial carcinoma (HeLa), human epidermoid carcinoma (A-431) and human breast carcinoma (MDA-MB-231 and MDA-MB-468) were maintained in DMEM medium (high glucose) supplemented with GlutaMAX and 10 vol % FBS. Human breast carcinoma (MCF-7) was maintained in DMEM medium (high glucose) supplemented with GlutaMAX, 10 vol % FBS, 1 vol % non-essential amino acids and 1% sodium pyruvate. Human breast carcinoma (HS 578T) was maintained in DMEM medium (high glucose) supplemented with GlutaMAX, 10 vol % FBS, 1% sodium pyruvate and insulin (10 μg/mL). […]
Cells were incubated with the compound (1 μM) for indicated time intervals. […] After that, the cells were washed three-times by PBS solution and imaged by confocal fluorescence microscopy.
(§2) Confocal fluorescence cell imaging was performed with a Zeiss laser scanning microscope 710 with a 40× water-immersion objective lens using Zen 2009 software (Carl Zeiss). […] A region of interest (ROI) was created around a single cell, and cellular fluorescence intensity was measured. The reported cellular fluorescence intensity was determined by averaging the measured intensity of 5 different cells from at least 3 different images in triplicate experiments. […]

A431 cells = assay: Immunostaining and confocal imaging of A431 cells with stimulation or inhibition of H2O2 or NO production; assay type: cell-based, human; settings: for change in fluorescence intensity with EGF stimulation: EGF 100 ng/mL 20, 40, 60 min, then 1 μM compound 4 h
Description: Human cervical epithelial carcinoma (HeLa), human epidermoid carcinoma (A-431) and human breast carcinoma (MDA-MB-231 and MDA-MB-468) were maintained in DMEM medium (high glucose) supplemented with GlutaMAX and 10 vol % FBS. Human breast carcinoma (MCF-7) was maintained in DMEM medium (high glucose) supplemented with GlutaMAX, 10 vol % FBS, 1 vol % non-essential amino acids and 1% sodium pyruvate. Human breast carcinoma (HS 578T) was maintained in DMEM medium (high glucose) supplemented with GlutaMAX, 10 vol % FBS, 1% sodium pyruvate and insulin (10 μg/mL). Human non-tumorigenic breast epithelial cells (MCF-10A) were maintained in DMEM/F12 (with L-glutamate, HEPES and phenol red) supplemented with 5 vol % horse serum, EGF (20 ng/mL), hydrocortisone ([…]), cholera toxin (100 ng/mL), insulin (10 μg/mL) and 1 vol % penicillin/streptomycin. Human normal breast epithelial cells (HS 578Bst) were maintained in ATCC Hybri-Care Medium (No. 46-X) supplemented with sodium bicarbonate ([…]), EGF (30 ng/mL) and 10 vol % FBS. All cells were incubated in 5% CO2 humidified air, and subcultured when 80% confluence was reached. For cell-imaging experiments, the cells were plated on 8-well Lab Tek borosilicate chambered coverglass slides (Nunc) or 24-well plates with 12 mm coverslips, and allowed to grow to ca. 60% confluency before performing the cell imaging experiments.
Cells were incubated with the compound (1 μM) for indicated time intervals. The cells were then washed three-times by PBS solution and fixed by 4% paraformaldehyde at room temperature for 10 min. The cells were washed by PBS solution and PBS solution with 0.1 vol %-Triton X-100, followed by incubation with α-puromycin antibody [3RH11] (Kerafast; 1:500, v/v) in PBS solution containing 10 vol % FBS and 0.1 vol % Triton X-100 at 37° C. for 30 min. Subsequently, the cells were washed by PBS solution and PBS solution with 0.1 vol %-Triton X-100, and stained by α-mouse secondary antibody-Alexa Fluor 488 (1:100, v/v) in PBS solution containing 10 vol % FBS and 0.1 vol % Triton X-100 at 37° C. for 30 min. The cells were then washed by PBS solution and stained by Hoechst 33342 at room temperature for 10 min. After that, the cells were washed three-times by PBS solution and imaged by confocal fluorescence microscopy.
EGF stimulation was carried out by pretreatment of A431 cells by EGF (100 ng/mL) for 20, 40 and 60 min, then washed by PBS and incubated with Peroxymycin-1 (1 μM) for 4 h.
For the study with L-NAME, A431 cells were pretreated with L-NAME (100 μM) for 25 min, then washed by PBS and incubated with EGF (100 ng/mL) for 40 min, followed by washing and incubation with Peroxymycin-1 (1 μM) for 4 h.
For the DPI experiment, the cells were pretreated with a mixture of DPI (5 μM) and EGF (100 ng/mL) for 40 min, followed by incubation with a mixture of DPI (5 μM) and Peroxymycin-1 (1 μM) for 4 h.
For the inhibition of H2O2 production by gp91 Tat peptide, the cells were pretreated with gp91 Tat peptide (100 μM) for 30 min, then incubated with a mixture of gp91 Tat peptide (100 μM) and Peroxymycin-1 (1 μM) for 4 h.
Confocal fluorescence cell imaging was performed with a Zeiss laser scanning microscope 710 with a 40× water-immersion objective lens using Zen 2009 software (Carl Zeiss). Hoechst 33342 was excited with a 405 nm diode laser, and emission was collected using a META detector between 450 and 500 nm. Alexa Fluor 488 was excited with 488 nm with an Ar laser, and emission was collected using a META detector between 500 and 625 nm. Alexa Fluor 647 was excited with a 633 nm HeNe laser, and emission was collected using a META detector between 638 and 647 nm. PBS solution was used as the imaging buffer for all the confocal experiments. Image analysis was performed using ImageJ. A region of interest (ROI) was created around a single cell, and cellular fluorescence intensity was measured. […]

HeLa cells [2] = assay: Immunostaining and confocal fluorescence imaging of HeLa cells treated with puromycin-based probes; assay type: cell-based, human; settings: for change in fluorescence intensity with paraquat co-incubation: 1 μM compound, paraquat 1 mM; for green immunofluorescence at 0.5 h: basal; for change of immunofluorescence intensity with incubation time: basal analyte level; for change in fluorescence intensity with H2O2 pretreatment: H2O2 50 μM 2 h pretreatment; for change in immunofluorescence intensity with cysteine or GSH incubation: 1 μM compound and cysteine or GSH 100 μM, 4 h
[3] = Stability of probes in phosphate buffer-methanol mixture by LC-MS; assay type: physicochemical
Description: (§3) MilliQ water was used in all experiments unless otherwise stated. Reaction kinetics of the probes with species of interest and other substrates were investigated by LC-MS (Agilent Technology 6130, Quadrupole LC/MS) coupled with photodiode array for detection (X=275 nm). Confocal microscopy images were recorded on a Zeiss laser scanning microscope 710 with a 40× water-immersion objective lens using Zen 2009 software (Carl Zeiss).
(§4) Peroxymycin-1 and Ctrl-Peroxymycin-1 (0.3 mM), respectively, were dissolved in phosphate buffer (20 mM, pH 7.4)-methanol solution mixture (2:1, v/v) with 3 vol % DMSO and allowed to stand at room temperature. At predetermined time intervals, an aliquot of the solution mixture was taken for LC-MS analysis. Separation was achieved by gradient elution from 5-100% MeOH in water (constant 0.1 vol % formic acid) over 8 min, isocratic with 100% MeOH from 8 to 12 min and returned to initial conditions and equilibrated for 3 minutes. The LC chromatograms were recorded by monitoring absorption at 275 nm.

[4] = LC-MS study of reaction of probe with H2O2 and other ROS; settings: 25° C.; probe 0.3 mM, H2O2 0.1 mM
Description: as §3, §4
For the study of the reaction with H2O2, Peroxymycin-1 and Ctrl-Peroxymycin-1 (0.3 mm), respectively, were dissolved in phosphate buffer (20 mM, pH 7.4)-methanol solution mixture (2:1, v/v) with 3 vol % DMSO. H2O2 was then added to the solution mixture (final concentration=0.1 mM), and the reaction mixture was allowed to stand at room temperature. […]

HeLa cells [5] = assay: Confocal fluorescence imaging of HeLa cells treated with fluorescent H2O2 probe PF2; assay type: cell-based, human
Description: as §1, with “μg/mL). Human non-tumorigenic breast epithelial cells (MCF-10A) were maintained in DMEM/F12 (with L-glutamate, HEPES and phenol red) supplemented with 5 vol % horse serum, EGF (20 ng/mL), hydrocortisone ([…]), cholera toxin (100 ng/mL), insulin (10 μg/mL) and 1 vol % penicillin/streptomycin.” for “μg/mL).”
as §2

[6] = LC-MS study of reaction of probe with GSH and other substrates; settings: 25° C.; probe 0.3 mM, GSH 1.0 mM
Description: as §3, §4

[7] = LC-MS study of reaction of probe with H2S and other substrates; settings: 25° C.; probe 0.3 mM, H2S 1 mM
Description: as §3, §4

[8] = H2S 100 μM 30 min, then 1 μM compound 4 h

SMILES: COc1ccc(CC(NC(=O)OCc2ccc(B3OC(C)(C)C(C)(C)O3)cc2)C(=O)NC2C(CO)OC(n3cnc4c(N(C)C)ncnc43)C2O)cc1 (stereo not shown) [Peroxymycin-1]
- order of fluorescence intensities normalized to puromycin-treated cells [1]: metastatic/invasive cancer cells>cancer cells>non-tumorigenic cells
- change in fluorescence intensity with EGF stimulation (A431 cells): statistically significant increase in fluorescence intensity
- change in immunofluorescent signal with DPI incubation (A431 cells; EGF 100 ng/mL 40 min, DPI 5 μM, probe 1 μM 4 h): statistically significant decrease in immunofluorescent signal
- effect of L-NAME on EGF-stimulated immunofluorescence (A431 cells; L-NAME 100 μM 25 min, EGF 100 ng/mL 40 min, probe 1 μM 4 h): does not block EGF-stimulated increases
- immunofluorescence with gp91 Tat peptide compared to controls without inhibitor (A431 cells; gp91 Tat peptide 100 μM 30 min, probe 1 μM 4 h): markedly lower levels
- change in fluorescence intensity with paraquat co-incubation (HeLa cells [2]): significant increases in fluorescence intensity
- fluorescence intensity with H2O2 co-incubation relative to cells treated with probe only (HeLa cells [2]; 1 μM probe 4 h, H2O2 50 μM co-incubation for 2 h): 4.3 times
- relative fluorescence intensity compared to cells treated by puromycin (HeLa cells [2]; 1 μM, 4 h incubation): 30.5%
- green immunofluorescence at 0.5 h (HeLa cells [2]; 1 μM, HeLa cells): no significant green fluorescence
- change of immunofluorescence intensity with incubation time (HeLa cells [2]; 1 μM, HeLa cells): increases in fluorescence intensity
- change in fluorescence intensity with H2O2 pretreatment (HeLa cells [2]; then 1 μM compound 4 h): statistically significant increase in fluorescence intensity
- stability in aqueous solution buffered to physiological pH ([3]; 0.3 mM probe, phosphate buffer (20 mM, pH 7.4)-methanol (2:1, v/v), 3 vol % DMSO, room temperature): good stability
- puromycin generation in the absence of H2O2 ([3]; control experiment, LC-MS): negligible puromycin generation
- pseudo-first-order rate constant of the reaction with H2O2 [4]: 0.001 s⁻¹

SMILES: COc1ccc2c(c1)Oc1cc(B3OC(C)(C)C(C)(C)O3)ccc1C21OC(=O)c2ccccc21 (stereo not shown) [PF2, Peroxyfluor-2]
- cellular fluorescence (basal H2O2) (HeLa cells [5]; 10 μM for 0.5, 4 and 6 h, washed): negligible fluorescence
- change in signal in response to Nox2 inhibition by gp91 Tat peptide (HeLa cells [5]; gp91 Tat peptide 100 μM 30 min, PF2 10 μM 4 h): failed to show statistically significant decreases in signal

SMILES: COc1ccc(CC(NC(=O)OCCSSCCOC(C)=O)C(=O)NC2C(CO)OC(n3cnc4c(N(C)C)ncnc43)C2O)cc1 (stereo not shown) [GSH-Puro-1]
- relative fluorescence intensity compared to cells treated by puromycin (HeLa cells [2]; 1 μM, 4 h incubation): 69%
- relative fluorescence intensity compared to cells treated by puromycin (HeLa cells [2]; 1 μM, 6 h incubation): 79%
- change of immunofluorescence intensity with incubation time (HeLa cells [2]; 1 μM, HeLa cells): Time-dependent increase in immunofluorescence intensity
- fluorescence with BSO pretreatment compared to no pretreatment (HeLa cells [2]; BSO 1 mM 3 h, then probe 2 h): significantly weaker fluorescence
- immunofluorescence with GSH or lipoic acid pretreatment compared to no pretreatment (HeLa cells [2]; GSH 100 μM 24 h or lipoic acid 1.8 mM 24 h, then probe 2 h): stronger immunofluorescence
- pseudo-first-order rate constant of the reaction with GSH [6]: 9.4e-05 s⁻¹

SMILES: COc1ccc(C[C@H](N)C(=O)N[C@H]2[C@@H](O)[C@H](n3cnc4c(N(C)C)ncnc43)O[C@@H]2CO)cc1 [puromycin]
- change in fluorescence intensity with EGF stimulation (A431 cells): do not show any significant changes in fluorescence intensity
- change in immunofluorescence intensity with cysteine or GSH incubation (HeLa cells [2]): negligible change in fluorescence intensity
- change in fluorescence intensity with paraquat co-incubation (HeLa cells [2]): no significant changes in fluorescence
- time of saturation of green fluorescence (HeLa cells [2]; 1 μM, HeLa cells): 1 h
- green immunofluorescence at 0.5 h (HeLa cells [2]; 1 μM, HeLa cells): strong green fluorescence
- change in fluorescence intensity with H2O2 pretreatment (HeLa cells [2]; then 1 μM compound 4 h): lack of observed changes in fluorescence intensity
- change in immunofluorescence intensity by H2S pretreatment (HeLa cells [2]; [8]): No significant change in immunofluorescence intensity
- change in immunofluorescence intensity with GSH, lipoic acid or BSO pretreatment (HeLa cells [2]; puromycin control): no significant change in immunofluorescence intensity

SMILES: COc1ccc(CC(NC(=O)OCc2ccc(N=[N+]=[N-])cc2)C(=O)NC2C(CO)OC(n3cnc4c(N(C)C)ncnc43)C2O)cc1 (stereo not shown) [H2S-Puro-1]
- change in immunofluorescence intensity with cysteine or GSH incubation (HeLa cells [2]): significant increase in immunofluorescence intensity
- relative fluorescence intensity compared to cells treated by puromycin (HeLa cells [2]; 1 μM, 4 h incubation): around 5%
- change of immunofluorescence intensity with incubation time (HeLa cells [2]; 1 μM, HeLa cells): time-dependent increase in green fluorescence intensity
- immunofluorescence with H2S pretreatment relative to no pretreatment (HeLa cells [2]; [8]): 1.4 fold
- pseudo-first-order rate constant of the reaction with H2S [7]: 6.3e-05 s⁻¹

SMILES: COc1ccc(CC(NC(=O)OCCc2ccc(B3OC(C)(C)C(C)(C)O3)cc2)C(=O)NC2C(CO)OC(n3cnc4c(N(C)C)ncnc43)C2O)cc1 (stereo not shown) [Ctrl-Peroxymycin-1]
- change in fluorescence intensity with EGF stimulation (A431 cells): no observable differences in immunofluorescence
- change in fluorescence intensity with H2O2 pretreatment (HeLa cells [2]; then 1 μM compound 4 h): lack of signal
